Among the test systems are DU-145 prostate; EKVX NSCLC; HCC-2998 colon; HT29 colon; MDA-N; OVCAR-3 ovarian; RPMI-8226 leukemia; SF-268 CNS; SF-295 CNS; SK-MEL-5 melanoma; SN12C renal; SW-620 colon.
What all share (test): NCI tumour cell line growth inhibition, 48 h

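Compound exposure: 48 hours, 5 concentrations, 96-well plates. Here, GI50 denotes the concentration required for 50% inhibition of growth. TGI: concentration producing complete growth inhibition.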 Where only a bound is given, the exact number is not on record here.

`CC(=O)ON(C(C)=O)c1ccc(-c2nc3ccccc3s2)cc1C`: the TGI with DU-145 prostate, in the assay with EKVX NSCLC, with HCC-2998 colon, with HT29 colon, with MDA-N and in the assay with OVCAR-3 ovarian was above 100 µM throughout. Besides, the TGI in the assay on RPMI-8226 leukemia, in the assay on SF-268 CNS, in the assay on SF-295 CNS, in the assay on SK-MEL-5 melanoma, with SN12C renal and with SW-620 colon was above 100 µM throughout.
On to `O=C1c2ccccc2C(=O)c2oc(Br)cc21`, for which the TGI in the assay with DU-145 prostate worked out at 0.491 µM; in the assay on EKVX NSCLC, 4.07 µM; in the assay on HCC-2998 colon it was 3.27 µM; with HT29 colon, 3.68 µM; in the assay with MDA-N, 0.267 µM; in the assay with OVCAR-3 ovarian it was 5.67 µM. Further, the TGI with RPMI-8226 leukemia was found to be 6.99 µM; with SF-268 CNS it was 4.22 µM; in the assay with SF-295 CNS, 1.03 µM; in the assay on SK-MEL-5 melanoma, 0.284 µM; in the assay with SN12C renal, 2.22 µM; in the assay with SW-620 colon it was 1.09 µM.
On to `C/C(=N\NC(=S)NCc1ccccc1)c1nc2ncccc2[nH]1`, for which the TGI in the assay with DU-145 prostate was determined as 24.5 µM; in the assay with EKVX NSCLC it was 8.51 µM; with HCC-2998 colon it was 68.4 µM; with HT29 colon, 12.8 µM; in the assay on MDA-N, 26.8 µM; in the assay with OVCAR-3 ovarian, 39.8 µM. Besides, the TGI in the assay on RPMI-8226 leukemia was 59.9 µM; with SF-268 CNS, 65.6 µM; in the assay on SF-295 CNS, 22.8 µM; in the assay on SK-MEL-5 melanoma, 14.6 µM; in the assay on SN12C renal, above 100 µM; with SW-620 colon it was above 100 µM.
Take `Nc1nc(N)c2nc(CNc3ccc(C(=O)NC(CCCCNC(=O)c4ccccc4C(=O)O)C(=O)O)cc3)cnc2n1` (stereo not given): the TGI in the assay on DU-145 prostate, in the assay on EKVX NSCLC, in the assay on HCC-2998 colon, with HT29 colon, in the assay on MDA-N and in the assay on OVCAR-3 ovarian was above 100 µM throughout. Also, the TGI in the assay on RPMI-8226 leukemia, with SF-268 CNS, in the assay on SF-295 CNS, in the assay on SK-MEL-5 melanoma, with SN12C renal and in the assay with SW-620 colon was above 100 µM throughout. Besides, the GI50 was 0.036 µM in the assay with EKVX NSCLC; 0.00566 µM with HT29 colon; 0.00464 µM in the assay on MDA-N; 0.00841 µM in the assay on SF-268 CNS; 0.0191 µM in the assay on SF-295 CNS; 0.0913 µM in the assay on SK-MEL-5 melanoma. In addition, the GI50 is 0.0127 µM with SN12C renal and 0.00342 µM in the assay on SW-620 colon.
As for `O=c1oc2ccc([N+](=O)[O-])cc2c(Nc2ccc3c(c2)S(=O)(=O)c2ccccc2O3)c1[N+](=O)[O-]`, the TGI in the assay on DU-145 prostate, in the assay on EKVX NSCLC, in the assay on HCC-2998 colon, in the assay on HT29 colon, in the assay on MDA-N and in the assay with OVCAR-3 ovarian was above 100 µM in each case. Also, the TGI in the assay with RPMI-8226 leukemia, with SF-268 CNS, in the assay on SF-295 CNS, with SK-MEL-5 melanoma, in the assay on SN12C renal and in the assay with SW-620 colon was above 100 µM each time.
As to `C/C=C/[C@H](O[Si](C)(C)C(C)(C)C)[C@@H](O)/C=C/C(=O)OCC`, the TGI with DU-145 prostate is above 100 µM; in the assay on EKVX NSCLC, 45.4 µM; with HCC-2998 colon it was 34.8 µM; in the assay with HT29 colon, 39.2 µM; in the assay with MDA-N, 42.8 µM; in the assay on OVCAR-3 ovarian, 47.6 µM. For the same molecule, the TGI with RPMI-8226 leukemia is 12.1 µM; in the assay on SF-268 CNS, 53.7 µM; in the assay on SF-295 CNS it was 46 µM; in the assay with SK-MEL-5 melanoma it was 32.2 µM; in the assay on SN12C renal, 48.1 µM; in the assay on SW-620 colon it was 39.2 µM.
Take `Cc1cccc2c(=O)c3cccc([C@@H](C)C(=O)O)c3oc12`: the TGI in the assay with DU-145 prostate, in the assay with EKVX NSCLC, in the assay with HCC-2998 colon, in the assay with HT29 colon, with MDA-N and in the assay on OVCAR-3 ovarian was above 100 µM throughout. The TGI with RPMI-8226 leukemia, with SF-268 CNS, in the assay with SF-295 CNS, in the assay with SK-MEL-5 melanoma, with SN12C renal and with SW-620 colon was above 100 µM in each case.
Take `CCOC(=O)/C(C#N)=C/c1ccc2c(c1)CC1(C2)Cc2cc(CC)c(C(C)O)cc2C1` (stereo not given): the TGI is 56.1 µM in the assay on DU-145 prostate; above 100 µM in the assay on EKVX NSCLC; above 80.9 µM in the assay on HCC-2998 colon; 39.5 µM with HT29 colon; 5.16 µM with MDA-N; 22.4 µM in the assay on OVCAR-3 ovarian. The TGI is 51.6 µM in the assay with RPMI-8226 leukemia; 32.1 µM in the assay with SF-268 CNS; 44.3 µM in the assay on SF-295 CNS; 16.8 µM in the assay on SK-MEL-5 melanoma; 32.4 µM in the assay with SN12C renal; 22.5 µM in the assay on SW-620 colon.
`COc1ccc(CCNCCCC2c3ccccc3-c3ccccc32)cc1OC`: the TGI was 28.9 µM in the assay with DU-145 prostate; 30.8 µM in the assay on EKVX NSCLC; 3.88 µM in the assay with HCC-2998 colon; 16.1 µM in the assay on HT29 colon; 30.8 µM with MDA-N; 31.2 µM in the assay on OVCAR-3 ovarian. In addition, the TGI came out at 22 µM in the assay on RPMI-8226 leukemia; 30.3 µM with SF-268 CNS; 29.2 µM with SF-295 CNS; 23.3 µM in the assay on SK-MEL-5 melanoma; 28.7 µM in the assay with SN12C renal; 20.4 µM in the assay on SW-620 colon.
Turning to `S=C1N=C(Cl)/C(=C\c2ccccc2)N1`, the TGI with DU-145 prostate, in the assay with EKVX NSCLC, in the assay with HCC-2998 colon, with HT29 colon, in the assay with MDA-N and in the assay on OVCAR-3 ovarian was above 100 µM each time. For the same molecule, the TGI in the assay on RPMI-8226 leukemia, in the assay with SF-268 CNS, with SF-295 CNS, with SK-MEL-5 melanoma, with SN12C renal and with SW-620 colon was above 100 µM throughout.
Turning to `COC(=O)c1ccc(NCc2cc(O)ccc2O)cc1`, the TGI in the assay with DU-145 prostate turned out to be 24.8 µM; in the assay with EKVX NSCLC, 37.1 µM; in the assay on HCC-2998 colon, 29.5 µM; in the assay on HT29 colon it was 50.7 µM; in the assay with MDA-N, 19 µM; in the assay on OVCAR-3 ovarian, 27.6 µM. In addition, the TGI in the assay on RPMI-8226 leukemia amounted to 34.7 µM; in the assay with SF-268 CNS it was 31.5 µM; with SF-295 CNS it was 35 µM; with SK-MEL-5 melanoma, 23.7 µM; with SN12C renal, 41.2 µM; in the assay on SW-620 colon, 23.4 µM.
Turning to `CN(C)Cc1cc(N=Nc2ccc(Cl)cc2)ccc1OC(=O)c1ccccc1`, the TGI in the assay on DU-145 prostate came out at 30.7 µM; in the assay on EKVX NSCLC, 25.9 µM; in the assay with HCC-2998 colon it was 31 µM; with HT29 colon, 27.5 µM; in the assay with MDA-N, 30.1 µM; in the assay with OVCAR-3 ovarian, 32.3 µM. The TGI turned out to be 40.7 µM in the assay with RPMI-8226 leukemia; 59.9 µM with SF-268 CNS; 28.7 µM with SF-295 CNS; 28.8 µM in the assay with SK-MEL-5 melanoma; 28.2 µM in the assay on SN12C renal; 30.5 µM with SW-620 colon.
On to `CC(=O)O[C@@H](C1C[C@@H](C)[C@H]2[C@@](O)(O1)[C@H](O)[C@@]1(C)C3=CC[C@H]4C(C)(C)[C@@H](OC5OCC(O)C(O)C5O)CC[C@@]45C[C@@]35CC[C@]21C)C(C)(C)O` (stereo not given in full), for which the TGI is 70 µM in the assay on DU-145 prostate; 61.6 µM with EKVX NSCLC; 27.7 µM with HCC-2998 colon; above 100 µM in the assay with HT29 colon; 73.6 µM in the assay with MDA-N; 41.9 µM in the assay with OVCAR-3 ovarian. The TGI in the assay on RPMI-8226 leukemia is 59.5 µM; with SF-268 CNS it was above 100 µM; in the assay on SF-295 CNS it was 48.1 µM; in the assay on SK-MEL-5 melanoma, 32.7 µM; with SN12C renal, 54.8 µM; in the assay with SW-620 colon it was above 100 µM.
`CCOP(=O)(OCC)/C(C#N)=C/c1ccnc2ccccc12`: the TGI with DU-145 prostate was above 100 µM; with EKVX NSCLC, above 100 µM; in the assay on HCC-2998 colon it was above 100 µM; in the assay on HT29 colon, 37.5 µM; in the assay on MDA-N, 42.2 µM; in the assay with OVCAR-3 ovarian, 70.6 µM. In addition, the TGI in the assay on RPMI-8226 leukemia is above 100 µM; with SF-268 CNS it was 56.5 µM; in the assay with SF-295 CNS, 57.9 µM; with SK-MEL-5 melanoma it was 47.8 µM; in the assay with SN12C renal it was 88.2 µM; in the assay on SW-620 colon it was above 100 µM.
With `CC(C)C(NC(=O)C(Cc1ccccc1)NC(=O)[C@H]1CCC[C@H]1NC(=O)C(N)Cc1ccc(O)cc1)C(N)=O` (stereo not given in full), the TGI in the assay on DU-145 prostate, with EKVX NSCLC, with HCC-2998 colon, with HT29 colon, with MDA-N and in the assay with OVCAR-3 ovarian was above 100 µM in each case. Further, the TGI in the assay with RPMI-8226 leukemia, in the assay on SF-268 CNS, in the assay on SF-295 CNS, in the assay with SK-MEL-5 melanoma, in the assay on SN12C renal and with SW-620 colon was above 100 µM in each case.
Turning to `NC(=O)c1cccc([C@@H]2O[C@H](CO)[C@@H](O)[C@H]2O)c1`, the TGI was above 50.6 µM with DU-145 prostate; above 100 µM in the assay on EKVX NSCLC; above 87.6 µM with HCC-2998 colon; 99 µM with HT29 colon; above 100 µM in the assay on MDA-N; 67.2 µM in the assay with OVCAR-3 ovarian. Also, the TGI in the assay on RPMI-8226 leukemia worked out at 29.8 µM; with SF-268 CNS, 26.6 µM; in the assay with SF-295 CNS it was 28.7 µM; in the assay on SK-MEL-5 melanoma, 53.2 µM; with SN12C renal, 80 µM; in the assay with SW-620 colon it was 42.8 µM.

Source of the values: PubChem BioAssay (NCI).
